Consider 20 compounds from patent US7056947B2, “Aza-peptide epoxides” (Georgia Tech Research Corp., priority 2002, dated 2006).

In the first experiment the target is T1, caspase-1 (Homo sapiens, UniProt P29466, D381E).
T1 construct: His tag (N); made in house; host or cells: E. coli
T1 sequence (P29466 120-297 limits assumed): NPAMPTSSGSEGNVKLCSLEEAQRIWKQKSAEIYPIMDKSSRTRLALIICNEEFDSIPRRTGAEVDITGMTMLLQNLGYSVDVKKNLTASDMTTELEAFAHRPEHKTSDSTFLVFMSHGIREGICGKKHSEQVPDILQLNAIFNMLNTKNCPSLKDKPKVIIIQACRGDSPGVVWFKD
T1 sequence (P29466 317-404 D381E limits assumed): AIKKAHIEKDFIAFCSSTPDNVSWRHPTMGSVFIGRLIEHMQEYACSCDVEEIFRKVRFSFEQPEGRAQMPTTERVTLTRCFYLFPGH
Put plainly: Caspase-1 progress curve assay. The experiment is classed as biochemical. The settings on record: D381E variant, substrate Ac-YVAD-AMC, 30° C. The text has this: Caspase-1. The preparation of the autolytically stable caspase-1 variant used in these studies has been described previously. Briefly, the variant contains a mutation (D381E) which renders it resistant to autolytic inactivation, but has no detectable affect on enzyme activity as compared to the naturally occurring enzyme. The enzyme variant was expressed in E. coli, purified first by immobilized metal chromatography via the N-terminal N-His tag, treated with excess oxidized glutathione to stabilize the reactive thiolate, and then re-purified by size-exclusion chromatography.
Inhibition data was measured using the progress curve assay method. Serial dilutions of each compound were prepared using an initial 8-fold dilution of a DMSO stock into HGE (100 mM HEPES,20% glycerol v/v, 0.5 mM EDTA), followed by seven serial two-fold dilutions into HGE and 12.5% DMSO, thus maintaining constant DMSO through the dilution series. Ten μL of diluted stocks or of vehicle (HGE and 12.5% DMSO) were placed in triplicate onto a 96-well microtiter plate, allowing several compounds to be tested on each plate. The plate was covered to minimize evaporation, and the plate was pre-warmed to 30° C. for 20 minutes. Enzyme was diluted into 10.0 mL of assay buffer (HGE, 5 mM DTT, plus 15 μM Ac-YVAD-AMC, 2 nM approximate final enzyme concentration), and this activated reaction mixture was added to the plate at 90 μL/well. Progress of substrate hydrolysis was monitored for 900 s in a LabSystems (Needham, Mass.) Fluoroskan Ascent fluorescent plate-reader using 385 and 460 nm excitation and emission filters, respectively, and a photomultiplier gain setting of 10. Triplicate curves were averaged and fit by nonlinear regression to the equation for irreversible inactivation shown below.
[formula] where F0 was routinely fixed to zero, since fluorescence values were always adjusted to an origin of 0. The second order rate constant kon (M^−1s^−1) was obtained from the slopes by linear regression, and errors represent the standard deviation of the regression slope.
With `CC(C)[C@H](NC(=O)CCc1ccccc1)C(=O)N[C@@H](C)C(=O)NN(CC(=O)O)C(=O)[C@@H]1O[C@H]1CCc1ccccc1` (relative stereo) [23a, trans-3-(N^2-(N-3-Phenylpropanoylvalylalanyl)-N^1-carboxylmethylhydrazinocarbonyl)-2-(2-phenylethyl)oxirane], the “k2 caspase-1” value was 300 ± 144 M⁻¹ s⁻¹.

Turning to `CCOC(=O)[C@@H]1O[C@H]1C(=O)N(CC(=O)O)NC(=O)[C@H](C)NC(=O)[C@@H](NC(=O)CCc1ccccc1)C(C)C` [23c (R,R)], the “k2 caspase-1” value worked out at 6290 ± 1524 M⁻¹ s⁻¹.

Consider `CCOC(=O)[C@H]1O[C@@H]1C(=O)N(CC(=O)O)NC(=O)[C@H](C)NC(=O)[C@@H](NC(=O)CCc1ccccc1)C(C)C` [23c (S,S), (2S,3S)-3-(N^2-(3-Phenylpropanoylvalylalanyl)-N^1-carboxymethylhydrazinocarbonyl)oxirane-2-carboxylic Acid Ethyl Ester], for which the “k2 caspase-1” value turned out to be 32200 ± 14560 M⁻¹ s⁻¹.

On to `CC(C)[C@H](NC(=O)CCc1ccccc1)C(=O)N[C@@H](C)C(=O)NN(CC(=O)O)C(=O)[C@@H]1O[C@H]1C(=O)OCc1ccccc1` [23d (R,R), (2R,3R)-3-(N^2-(3-Phenylpropanoylvalylalanyl)-N^1-carboxymethylhydrazinocarbonyl)oxirane-2-carboxylic Acid Benzyl Ester], for which the “k2 caspase-1” value turned out to be 1860 ± 302 M⁻¹ s⁻¹.

Take `CC(C)[C@H](NC(=O)CCc1ccccc1)C(=O)N[C@@H](C)C(=O)NN(CC(=O)O)C(=O)[C@H]1O[C@@H]1C(=O)OCCc1ccccc1` [23e, (2S,3S)-3-(N^2-(3-Phenylpropanoylvalylalanyl)-N^1-carboxymethylhydrazinocarbonyl)oxirane-2-carboxylic Acid Phenethyl Ester]: the “k2 caspase-1” value worked out at 56640 ± 9322 M⁻¹ s⁻¹.

On to `CC(NC(=O)C(NC(=O)CCc1ccccc1)C(C)C)C(=O)NN(CC(=O)O)C(=O)[C@@H]1O[C@H]1C(=O)NCc1ccccc1` (stereo partly drawn) [23g (R,R), (2R,3R)-2-(2-Benzylcarbamoyl)-3-(N^2-(3-phenylpropanoylvalylalanyl)-N^1-carboxymethylhydrazinocarbonyl)oxirane], for which the “k2 caspase-1” value came to 1630 ± 522 M⁻¹ s⁻¹.

In the case of `CC(C)[C@H](NC(=O)CCc1ccccc1)C(=O)N[C@@H](C)C(=O)NN(CC(=O)O)C(=O)[C@H]1O[C@@H]1C(=O)NCc1ccccc1` [23g (S,S), (2S,3S)-2-(2-Benzylcarbamoyl)-3-(N^2-(3-phenylpropanoylvalylalanyl)-N^1-carboxymethylhydrazinocarbonyl)oxirane], the “k2 caspase-1” value turned out to be 65900 ± 9153 M⁻¹ s⁻¹.

Take `CC(C)[C@H](NC(=O)CCc1ccccc1)C(=O)N[C@@H](C)C(=O)NN(CC(=O)O)C(=O)[C@@H]1O[C@H]1C(=O)NCCc1ccccc1` [23h (R,R), (2R,3R)-2-(2-Phenethylcarbamoyl)-3-(N^2-(3-phenylpropanoylvalylalanyl)-N^1-carboxymethylhydrazinocarbonyl)oxirane]: the “k2 caspase-1” value came to 950 ± 51 M⁻¹ s⁻¹.

Consider `CC(C)[C@H](NC(=O)CCc1ccccc1)C(=O)N[C@@H](C)C(=O)NN(CC(=O)O)C(=O)[C@H]1O[C@@H]1C(=O)NCCc1ccccc1` [23h (S,S), (2S,3S)-2-(2-Phenethylcarbamoyl)-3-(N^2-(3-phenylpropanoylvalylalanyl)-N^1-carboxymethylhydrazinocarbonyl)oxirane], for which the “k2 caspase-1” value was determined as 17150 ± 2254 M⁻¹ s⁻¹.

Take `CC(C)[C@H](NC(=O)CCc1ccccc1)C(=O)N[C@@H](C)C(=O)NN(CC(=O)O)C(=O)[C@@H]1O[C@H]1C(=O)NCC(O)c1ccccc1` (stereo partly drawn) [23i (R,R), (2R,3R)-2-(2-Hydroxy-2-phenylethylcarbamoyl)-3-(N^2-(3-phenylpropanoylvalylalanyl)-N^1-carboxymethylhydrazinocarbonyl)oxirane]: the “k2 caspase-1” value was 400 ± 19 M⁻¹ s⁻¹.

With `CC(NC(=O)[C@@H]1O[C@H]1C(=O)N(CC(=O)O)NC(=O)[C@H](C)NC(=O)[C@@H](NC(=O)CCc1ccccc1)C(C)C)C(=O)NCc1ccccc1` (stereo partly drawn) [23j (R,R), (2R,3R)-2-(1-Benzylcarbamoylethylcarbamoyl)-3-(N^2-(3-phenylpropanoylvalylalanyl)-N^1-carboxymethylhydrazinocarbonyl)oxirane], the “k2 caspase-1” value worked out at 268 ± 75 M⁻¹ s⁻¹.

Consider `CC(C)[C@H](NC(=O)CCc1ccccc1)C(=O)N[C@@H](C)C(=O)NN(CC(=O)O)C(=O)[C@@H]1O[C@H]1C(=O)NC(Cc1ccccc1)C(N)=O` (stereo partly drawn) [23l (R,R), (2R,3R)-2-(1-Amido-phenethylcarbamoyl)-3-(N^2-(3-phenylpropanoylvalylalanyl)-N^1-carboxymethylhydrazinocarbonyl)oxirane], for which the “k2 caspase-1” value was found to be 330 M⁻¹ s⁻¹.

Another experiment deals with T2, caspase-3 (Homo sapiens, UniProt P42574).
T2 construct: made in house; host or cells: E. coli
T2 sequence (P42574 29-175 limits assumed): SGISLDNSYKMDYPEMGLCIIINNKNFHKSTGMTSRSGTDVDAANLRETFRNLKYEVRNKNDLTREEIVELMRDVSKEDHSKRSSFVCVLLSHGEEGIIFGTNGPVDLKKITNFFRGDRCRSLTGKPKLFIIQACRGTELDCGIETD
T2 sequence (P42574 176-277 limits assumed): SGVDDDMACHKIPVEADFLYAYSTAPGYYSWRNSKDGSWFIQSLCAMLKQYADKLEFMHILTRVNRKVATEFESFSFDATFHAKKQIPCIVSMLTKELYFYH
Put plainly: Caspase-3 progress curve assay. The experiment is classed as biochemical. As to conditions: substrate Z-DEVD-AFC; NI = no inhibition. As for the experimental part:
Caspase-3, -6, and -8. Caspase-3, -6 and -8 were expressed in E. coli and purified according to methods previously described by Stennicke and Salvesen. Assays using the fluorogenic substrate Z-DEVD-AFC (λex=400 nm, λem=505 nm) were carried out on a Molecular Devices fMax fluorescence microplate reader. Inhibition rates and equilibria were determined by the progress curve method. The standard 100 μL reaction was started by adding enzyme to a mixture of substrate (final concentration of Z-DEVD-AFC 100 μM) and various amounts of inhibitor in buffer (50 mM Hepes, 100 mM NaCl, 0.1% (w/v) CHAPS, sucrose 10% (w/v), and 10 mM DTT, at pH 7.4). The caspases were pre-activated for 10 min at 37° C. in the presence of 10 mM DTT.
On to `CC(C)[C@H](NC(=O)OCc1ccccc1)C(=O)NN(CC(=O)O)C(=O)[C@@H]1O[C@H]1c1ccc(Cl)cc1` (relative stereo) [22b, trans-2-(N^2-(N-Benzyloxycarbonylvalyl)-N^1-carboxymethylhydrazinocarbonyl)-3-(4-chlorophenyl)oxirane], for which the “k2 caspase-3” value is 145 ± 18 M⁻¹ s⁻¹.

On to `CC(C)C(NC(=O)OCc1ccccc1)C(=O)NN(CC(=O)O)C(=O)C1OC1CCc1ccccc1` (stereo not drawn) [22a, Cbz-Val-AAsp-(trans)-EP-CH2CH2Ph], for which the “k2 caspase-3” value is 310 ± 5 M⁻¹ s⁻¹.

Turning to `CCOC(=O)C1OC1C(=O)N(CC(=O)O)NC(=O)C(NC(=O)OCc1ccccc1)C(C)C` [22c, Cbz-Val-AAsp-(S,S)-EP-COOEt], the “k2 caspase-3” value was determined as 3650 ± 570 M⁻¹ s⁻¹.

As to `CC(C)C(NC(=O)OCc1ccccc1)C(=O)NN(CC(=O)O)C(=O)C1OC1C(=O)O` [22n, Cbz-Val-AAsp-(S,S)-EP-COOH], the “k2 caspase-3” value stood at 1110 ± 340 M⁻¹ s⁻¹.

On to `CCOC(=O)[C@H]1O[C@@H]1C(=O)N(CC(=O)O)NC(=O)[C@H](C)NC(=O)[C@@H](NC(=O)CCc1ccccc1)C(C)C` [23c (S,S), (2S,3S)-3-(N^2-(3-Phenylpropanoylvalylalanyl)-N^1-carboxymethylhydrazinocarbonyl)oxirane-2-carboxylic Acid Ethyl Ester], for which the “k2 caspase-3” value was 1040 ± 80 M⁻¹ s⁻¹.

Turning to `CC(C)[C@H](NC(=O)CCc1ccccc1)C(=O)N[C@@H](C)C(=O)NN(CC(=O)O)C(=O)[C@H]1O[C@@H]1C(=O)OCCc1ccccc1` [23e, (2S,3S)-3-(N^2-(3-Phenylpropanoylvalylalanyl)-N^1-carboxymethylhydrazinocarbonyl)oxirane-2-carboxylic Acid Phenethyl Ester], the “k2 caspase-3” value came to 2110 ± 50 M⁻¹ s⁻¹.

Consider `CCNC(=O)[C@H]1O[C@@H]1C(=O)N(CC(=O)O)NC(=O)[C@H](C)NC(=O)[C@@H](NC(=O)CCc1ccccc1)C(C)C` [23f, (2S,3S)-2-(2-Ethylcarbamoyl)-3-(N^2-(3-phenylpropanoylvalylalanyl)-N^1-carboxymethylhydrazinocarbonyl)oxirane], for which the “k2 caspase-3” value came out at 1910 ± 370 M⁻¹ s⁻¹.

`CC(C)[C@H](NC(=O)CCc1ccccc1)C(=O)N[C@@H](C)C(=O)NN(CC(=O)O)C(=O)[C@H]1O[C@@H]1C(=O)NCc1ccccc1` [23g (S,S), (2S,3S)-2-(2-Benzylcarbamoyl)-3-(N^2-(3-phenylpropanoylvalylalanyl)-N^1-carboxymethylhydrazinocarbonyl)oxirane]: the “k2 caspase-3” value was 1610 ± 5 M⁻¹ s⁻¹.

Consider `CC(C)[C@H](NC(=O)CCc1ccccc1)C(=O)N[C@@H](C)C(=O)NN(CC(=O)O)C(=O)[C@H]1O[C@@H]1C(=O)NCCc1ccccc1` [23h (S,S), (2S,3S)-2-(2-Phenethylcarbamoyl)-3-(N^2-(3-phenylpropanoylvalylalanyl)-N^1-carboxymethylhydrazinocarbonyl)oxirane], for which the “k2 caspase-3” value is 1110 ± 100 M⁻¹ s⁻¹.

On to `CC(C)C[C@H](NC(=O)OCc1ccccc1)C(=O)N[C@@H](CCC(=O)O)C(=O)N[C@H](C(=O)NN(CC(=O)O)C(=O)[C@H]1O[C@@H]1C(=O)NCCc1ccccc1)[C@@H](C)O` [26h, (2S,3S)-2-(2-Phenethylcarbamoyl)-3-(N^2-(N -benzyloxycarbonylleucylglutamylthreonyl)-N^1-carboxymethylhydrazinocarbonyl)oxirane], for which the “k2 caspase-3” value amounted to 2550 ± 25 M⁻¹ s⁻¹.

In the case of `CC(C)C[C@H](NC(=O)OCc1ccccc1)C(=O)N[C@@H](CCC(=O)O)C(=O)N[C@H](C(=O)NN(CC(=O)O)C(=O)[C@H]1O[C@@H]1C(=O)NC(C)C(=O)NCc1ccccc1)[C@@H](C)O` (stereo partly drawn) [26j, (2S,3S)-2-(1-Benzylcarbamoyl-ethylcarbamoyl)-3-(N^2-(N-benzyloxycarbonylleucylglutamylthreonyl)-N^1-carboxymethylhydrazinocarbonyl)oxirane], the “k2 caspase-3” value was 1280 ± 77 M⁻¹ s⁻¹.

On to `CC[C@H](C)[C@H](NC(=O)OCc1ccccc1)C(=O)N[C@@H](CCC(=O)O)C(=O)N[C@H](C(=O)NN(CC(=O)O)C(=O)[C@H]1O[C@@H]1C(=O)NC(C)C(=O)NCc1ccccc1)[C@@H](C)O` (stereo partly drawn) [27j, (2S,3S)-2-(1-Benzylcarbamoyl-ethylcarbamoyl)-3-(N^2-(N-benzyloxycarbonylisoleucylglutamylthreonyl)-N^1-carboxymethylhydrazinocarbonyl)oxirane], for which the “k2 caspase-3” value came to 3050 M⁻¹ s⁻¹.
